In PubChem BioAssay (NCI):
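Compound exposure: 48 hours, 5 concentrations, 96-well plates. Here, GI50 denotes the concentration required for 50% inhibition of growth. TGI is the concentration that stops growth completely.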

Tests used:
Test in all cases: DTP human tumour cell line panel, 48 h
[1] = system: PC-3 prostate
[2] = system: RPMI-8226 leukemia
[3] = system: SNB-75 CNS
[4] = system: OVCAR-3 ovarian
[5] = system: A549 NSCLC
[6] = system: M14 melanoma
[7] = system: HCT-116 colon
[8] = system: LOX IMVI melanoma
[9] = system: UACC-62 melanoma
[10] = system: SF-539 CNS
[11] = system: 786-0 renal
[12] = system: T-47D breast
[13] = system: HT29 colon
[14] = system: NCI-H226 lung
[15] = system: HCT-15 colon
[16] = system: OVCAR-5 ovarian
[17] = system: ACHN renal
[18] = system: SK-OV-3 ovarian
[19] = system: NCI-H23 lung
[20] = system: UO-31 renal
[21] = system: MCF7 breast
[22] = system: OVCAR-4 ovarian
[23] = system: NCI-H522 lung
[24] = system: COLO 205 colon
[25] = system: IGROV1 ovarian
[26] = system: MDA-MB-435
[27] = system: SR leukemia
[28] = system: SK-MEL-2 melanoma
[29] = system: OVCAR-8 ovarian
[30] = system: MDA-MB-231 breast
[31] = system: MALME-3M melanoma
[32] = system: MOLT-4 leukemia
[33] = system: NCI/ADR-RES ovarian
[34] = system: CAKI-1 renal
[35] = system: UACC-257 melanoma
[36] = system: DU-145 prostate
[37] = system: SNB-19 CNS
[38] = system: HS 578T breast
[39] = system: SK-MEL-5 melanoma
[40] = system: SW-620 colon
[41] = system: NCI-H460 lung
[42] = system: KM12 colon
[43] = system: HL-60(TB) leukemia
[44] = system: U251 CNS
[45] = system: SF-295 CNS
[46] = system: A498 renal
[47] = system: SK-MEL-28 melanoma
[48] = system: CCRF-CEM leukemia
[49] = system: HCC-2998 colon
[50] = system: BT-549 breast
[51] = system: HOP-62 NSCLC
[52] = system: K-562 leukemia
[53] = system: HOP-92 NSCLC
[54] = system: TK-10 renal
[55] = system: EKVX NSCLC
[56] = system: SF-268 CNS
[57] = system: SN12C renal

COC(=O)c1c2c(c[n+]([O-])c1C)C(=O)C=CC2=O
GI50 [1]: 4.34 µM
TGI [1]: 55.1 µM
GI50 [2]: 3.9 µM
TGI [2]: 26.6 µM
GI50 [3]: 1.72 µM
TGI [3]: 4.13 µM
GI50 [4]: 0.317 µM
TGI [4]: 1.17 µM
GI50 [5]: 16.1 µM
TGI [5]: 40.1 µM
GI50 [6]: 1.87 µM
TGI [6]: 3.69 µM
GI50 [7]: 2.19 µM
TGI [7]: 5.18 µM
GI50 [8]: 1.96 µM
TGI [8]: 4.18 µM
GI50 [9]: 1.81 µM
TGI [9]: 3.4 µM
GI50 [10]: 1.79 µM
TGI [10]: 3.39 µM
GI50 [11]: 2.56 µM
TGI [11]: 6.39 µM
GI50 [12]: 2.33 µM
TGI [12]: 6.85 µM
GI50 [13]: 4.1 µM
TGI [13]: 56.3 µM
GI50 [14]: 2.12 µM
TGI [14]: 4.52 µM
GI50 [15]: 1.78 µM
TGI [15]: 3.51 µM
GI50 [16]: 1.9 µM
TGI [16]: 3.85 µM
GI50 [17]: 1.73 µM
TGI [17]: 3.22 µM
GI50 [18]: 19.3 µM
TGI [18]: 51.1 µM
GI50 [19]: 1.88 µM
TGI [19]: 4.26 µM
GI50 [20]: 1.52 µM
TGI [20]: 3.03 µM
GI50 [21]: 1.65 µM
TGI [21]: 3.46 µM
GI50 [22]: 1.44 µM
TGI [22]: 2.83 µM
GI50 [23]: 1.72 µM
TGI [23]: 4.5 µM
GI50 [24]: 1.85 µM
TGI [24]: 3.93 µM
GI50 [25]: 2.11 µM
TGI [25]: 4.54 µM
GI50 [26]: 1.68 µM
TGI [26]: 3.15 µM
GI50 [27]: 2.72 µM
TGI [27]: > 100 µM
GI50 [28]: 2.08 µM
TGI [28]: 4.5 µM
GI50 [29]: 2.93 µM
TGI [29]: 10.8 µM
GI50 [30]: 2.01 µM
TGI [30]: 5.46 µM
GI50 [31]: 1.25 µM
TGI [31]: 2.51 µM
GI50 [32]: 2.43 µM
TGI [32]: 6.21 µM
GI50 [33]: 3.27 µM
TGI [33]: 14.4 µM
GI50 [34]: 1.7 µM
TGI [34]: 3.16 µM
GI50 [35]: 2.26 µM
TGI [35]: 5.54 µM
GI50 [36]: 1.85 µM
TGI [36]: 3.54 µM
GI50 [37]: 3.02 µM
TGI [37]: 10.9 µM
GI50 [38]: 2.17 µM
TGI [38]: 6.04 µM
GI50 [39]: 1.74 µM
TGI [39]: 3.15 µM
GI50 [40]: 2.08 µM
TGI [40]: 5.36 µM
GI50 [41]: 12.8 µM
TGI [41]: 28 µM
GI50 [42]: 4.27 µM
TGI [42]: 18.8 µM
GI50 [43]: 2.13 µM
TGI [43]: 5.75 µM
GI50 [44]: 2.15 µM
TGI [44]: 5.22 µM
GI50 [45]: 3.43 µM
TGI [45]: 13.2 µM
GI50 [46]: 13.1 µM
TGI [46]: 26.4 µM
GI50 [47]: 2.14 µM
TGI [47]: 3.97 µM
GI50 [48]: 2.5 µM
TGI [48]: 6.57 µM
GI50 [49]: 4.25 µM
TGI [49]: 15.5 µM
GI50 [50]: 1.78 µM
TGI [50]: 3.23 µM
GI50 [51]: 2.6 µM
TGI [51]: 7.71 µM
GI50 [52]: 2.51 µM
TGI [52]: > 100 µM
GI50 [53]: 2.84 µM
TGI [53]: 9.06 µM
GI50 [54]: 2.99 µM
TGI [54]: 9.57 µM
GI50 [55]: 1.83 µM
TGI [55]: 4.25 µM
GI50 [56]: 2.83 µM
TGI [56]: 10.7 µM
GI50 [57]: 1.76 µM
TGI [57]: 3.23 µM
